Assay results published in patent publication US20170355705A1 (GlaxoSmithKline Intellectual Property (No.2) Limited, priority 2014, published 2017).

Biological target: T1, SIRT1 (Homo sapiens, UniProt Q96EB6)
T1 sequence (Q96EB6 1-747): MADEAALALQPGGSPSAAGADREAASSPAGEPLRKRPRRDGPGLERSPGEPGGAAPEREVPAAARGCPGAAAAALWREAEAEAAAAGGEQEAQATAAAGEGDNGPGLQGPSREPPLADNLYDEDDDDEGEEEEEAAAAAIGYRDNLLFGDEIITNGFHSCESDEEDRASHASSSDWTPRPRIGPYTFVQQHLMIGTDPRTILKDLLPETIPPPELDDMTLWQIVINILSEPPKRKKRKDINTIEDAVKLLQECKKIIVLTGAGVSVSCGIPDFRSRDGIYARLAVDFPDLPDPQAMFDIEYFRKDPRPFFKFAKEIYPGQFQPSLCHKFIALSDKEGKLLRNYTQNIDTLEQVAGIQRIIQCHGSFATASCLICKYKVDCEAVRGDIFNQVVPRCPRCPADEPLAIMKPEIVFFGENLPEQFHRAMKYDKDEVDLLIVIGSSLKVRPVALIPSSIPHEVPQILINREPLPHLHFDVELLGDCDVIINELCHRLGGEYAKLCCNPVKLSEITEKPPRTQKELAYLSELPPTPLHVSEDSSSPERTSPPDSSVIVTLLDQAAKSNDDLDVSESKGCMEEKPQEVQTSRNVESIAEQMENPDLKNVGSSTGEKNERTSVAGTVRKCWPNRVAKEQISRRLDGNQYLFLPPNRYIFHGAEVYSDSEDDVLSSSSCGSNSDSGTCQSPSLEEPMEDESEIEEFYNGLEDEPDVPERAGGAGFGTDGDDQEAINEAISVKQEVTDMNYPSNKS
Assay: Trp mass spectrometry assay of SIRT1 activity (EC1.5, percent maximum activation)
Assay type: biochemical
Details: Trp mass spectrometry assay; for TRP Activity (EC1.5): EC1.5 = concentration giving 150% activation of SIRT1; for TRP MAX RESP (percent maximum fold activation): percent maximum activation of SIRT1
In short: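 Sirtuin deacetylation was run with purified N-His SIRT1 and the 5TMR Trp peptide across a compound titration, stopped after 25 min by acidification, and analysed by MS for OAADPR. Endpoint lay within the linear range.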

TRP Activity (EC1.5)	TRP MAX RESP (percent maximum fold activation)	Compound
B (EC1.5 1-25 μM)	A (Fold activation ≧150%)	Cc1cc(-c2ccc3c(n2)N(C(=O)Nc2c[nH]nn2)[C@H]2CCN3C2)ccn1 [Example 167, (4S)-7-(2-methylpyridin-4-yl)-N-(1H-1,2,3-triazol-4-yl)-3,4-dihydro-1,4-methanopyrido[2,3-b][1,4]diazepine-5(2H)-carboxamide]
C (EC1.5>25 μM)	B (Fold Activation <150%)	Cc1cc(-c2ccc3c(n2)N(C(=O)N[C@@H](C)c2ccccn2)[C@H]2CCN3C2)ccn1 [Example 168, (4S)-7-(2-methylpyridin-4-yl)-N-((S)-1-(pyridin-2-yl)ethyl)-3,4-dihydro-1,4-methanopyrido[2,3-b][1,4]diazepine-5(2H)-carboxamide]
C (EC1.5>25 μM)	B (Fold Activation <150%)	Cc1cc(-c2ccc3c(n2)N(C(=O)N[C@H](C)c2ccccn2)[C@H]2CCN3C2)ccn1 [Example 169, (4S)-7-(2-methylpyridin-4-yl)-N-((R)-1-(pyridin-2-yl)ethyl)-3,4-dihydro-1,4-methanopyrido[2,3-b][1,4]diazepine-5(2H)-carboxamide]
A (EC1.5<1 μM)	A (Fold activation ≧150%)	Cc1cc(-c2ccc3c(n2)N(C(=O)Nc2cnccn2)[C@H]2CCN3C2)cnc1C [Example 171, (4S)-7-(5,6-dimethylpyridin-3-yl)-N-(pyrazin-2-yl)-3,4-dihydro-1,4-methanopyrido[2,3-b][1,4]diazepine-5(2H)-carboxamide]
B (EC1.5 1-25 μM)	A (Fold activation ≧150%)	CN(C)c1cccc(-c2ccc3c(n2)N(C(=O)Nc2cnccn2)[C@H]2CCN3C2)c1 [Example 172, (4S)-7-(3-(dimethylamino)phenyl)-N-(pyrazin-2-yl)-3,4-dihydro-1,4-methanopyrido[2,3-b][1,4]diazepine-5(2H)-carboxamide]
C (EC1.5>25 μM)	B (Fold Activation <150%)	Cc1cc(-c2ccc3c(n2)N(C(=O)N2CCCC2)[C@H]2CCN3C2)ccn1 [Example 173, ((4S)-7-(2-methylpyridin-4-yl)-3,4-dihydro-1,4-methanopyrido[2,3-b][1,4]diazepin-5(2H)-yl)(pyrrolidin-1-yl)methanone]
C (EC1.5>25 μM)	B (Fold Activation <150%)	Cc1cc(-c2ccc3c(n2)N(C(=O)N2CCN(C)CC2)[C@H]2CCN3C2)ccn1 [Example 174, (4-methylpiperazin-1-yl)((4S)-7-(2-methylpyridin-4-yl)-3,4-dihydro-1,4-methanopyrido[2,3-b][1,4]diazepin-5(2H)-yl)methanone]
B (EC1.5 1-25 μM)	A (Fold activation ≧150%)	Cc1cc(-c2ccc3c(n2)N(C(=O)NC2CCCC2)[C@H]2CCN3C2)ccn1 [Example 175, (4S)-N-cyclopentyl-7-(2-methylpyridin-4-yl)-3,4-dihydro-1,4-methanopyrido[2,3-b][1,4]diazepine-5(2H)-carboxamide]
B (EC1.5 1-25 μM)	A (Fold activation ≧150%)	O=C(Nc1cnccn1)N1c2nc(-c3ccn[nH]3)ccc2N2CC[C@H]1C2 [Example 176, (4S)-N-(pyrazin-2-yl)-7-(1H-pyrazol-5-yl)-3,4-dihydro-1,4-methanopyrido[2,3-b][1,4]diazepine-5(2H)-carboxamide]
C (EC1.5>25 μM)	B (Fold Activation <150%)	O=C(O)c1cc(-c2ccc3c(n2)N(C(=O)Nc2cnccn2)[C@H]2CCN3C2)ccn1 [Example 177, 4-((4S)-5-(pyrazin-2-ylcarbamoyl)-2,3,4,5-tetrahydro-1,4-methanopyrido[2,3-b][1,4]diazepin-7-yl)picolinic acid]
B (EC1.5 1-25 μM)	A (Fold activation ≧150%)	Cc1ccc(NC(=O)N2c3nc(-c4ccnc(C)c4)ccc3N3CC[C@H]2C3)cn1 [Example 178, (4S)-N-(6-methylpyridin-3-yl)-7-(2-methylpyridin-4-yl)-3,4-dihydro-1,4-methanopyrido[2,3-b][1,4]diazepine-5(2H)-carboxamide]
B (EC1.5 1-25 μM)	A (Fold activation ≧150%)	CN(C)c1cc(-c2ccc3c(n2)N(C(=O)Nc2cnccn2)[C@H]2CCN3C2)ccn1 [Example 179, (4S)-7-(2-(dimethylamino)pyridin-4-yl)-N-(pyrazin-2-yl)-3,4-dihydro-1,4-methanopyrido[2,3-b][1,4]diazepine-5(2H)-carboxamide]
B (EC1.5 1-25 μM)	A (Fold activation ≧150%)	O=C(Nc1cnccn1)N1c2nc(-c3ccc(C4CC4)nc3)ccc2N2CC[C@H]1C2 [Example 180, (4S)-7-(6-cyclopropylpyridin-3-yl)-N-(pyrazin-2-yl)-3,4-dihydro-1,4-methanopyrido[2,3-b][1,4]diazepine-5(2H)-carboxamide]
B (EC1.5 1-25 μM)	A (Fold activation ≧150%)	O=C(Nc1cnccn1)N1c2nc(N3CCCCC3)ccc2N2CC[C@H]1C2 [Example 181, (4S)-7-(piperidin-1-yl)-N-(pyrazin-2-yl)-3,4-dihydro-1,4-methanopyrido[2,3-b][1,4]diazepine-5(2H)-carboxamide]
B (EC1.5 1-25 μM)	A (Fold activation ≧150%)	Cc1cc(-c2ccc3c(n2)N(C(=O)Nc2ccn(C)n2)[C@H]2CCN3C2)ccn1 [Example 182, (4S)-N-(1-methyl-1H-pyrazol-3-yl)-7-(2-methylpyridin-4-yl)-3,4-dihydro-1,4-methanopyrido[2,3-b][1,4]diazepine-5(2H)-carboxamide]
B (EC1.5 1-25 μM)	A (Fold activation ≧150%)	Cc1cc(-c2ccc3c(n2)N(C(=O)NC2CCC2)[C@H]2CCN3C2)ccn1 [Example 183, (4S)-N-cyclobutyl-7-(2-methylpyridin-4-yl)-3,4-dihydro-1,4-methanopyrido[2,3-b][1,4]diazepine-5(2H)-carboxamide]
C (EC1.5>25 μM)	B (Fold Activation <150%)	Cc1cc(-c2ccc3c(n2)N(C(=O)NCc2ccccn2)[C@H]2CCN3C2)ccn1 [Example 186, (4S)-7-(2-methylpyridin-4-yl)-N-(pyridin-2-ylmethyl)-3,4-dihydro-1,4-methanopyrido[2,3-b][1,4]diazepine-5(2H)-carboxamide]
C (EC1.5>25 μM)	B (Fold Activation <150%)	Cc1cc(-c2ccc3c(n2)N(C(=O)Nc2cnncn2)[C@H]2CCN3C2)ccn1 [Example 187, (4S)-7-(2-methylpyridin-4-yl)-N-(1,2,4-triazin-5-yl)-3,4-dihydro-1,4-methanopyrido[2,3-b][1,4]diazepine-5(2H)-carboxamide]
B (EC1.5 1-25 μM)	A (Fold activation ≧150%)	Cc1cc(-c2ccc3c(n2)N(C(=O)Nc2ccc4[nH]cnc4n2)[C@H]2CCN3C2)ccn1 [Example 189, (4S)-N-(1H-imidazo[4,5-b]pyridin-5-yl)-7-(2-methylpyridin-4-yl)-3,4-dihydro-1,4-methanopyrido[2,3-b][1,4]diazepine-5(2H)-carboxamide]
A (EC1.5<1 μM)	A (Fold activation ≧150%)	Cc1cc(-c2ccc3c(n2)N(C(=O)Nc2cncc(F)n2)[C@H]2CCN3C2)ccn1 [Example 190, (4S)-N-(6-fluoropyrazin-2-yl)-7-(2-methylpyridin-4-yl)-3,4-dihydro-1,4-methanopyrido[2,3-b][1,4]diazepine-5(2H)-carboxamide]
